Assay results taken from US20230120666A1, “EXCIPIENTS PROVIDING STABILIZATION AND ENHANCED WATER SOLUBILIZATION AND THEIR USES” (priority 2020, published 2023).
“Also recorded” adds a separate entry of the source.

Key:
[1] = Storage stability of 20 wt % SupraPlex formulations in sealed plastic vial at RT; format: physicochemical; settings: loaded in 20 wt % Run #65 in DI water, pH 2.5±0.5, sealed poly(propylene) vial, 12 months
[2] = literature value, Modasiya et al. 2012; cited from earlier work
[3] = CBD water solubility / solubility enhancement by UV-Visible spectrometry; format: physicochemical; settings: CBD 1 g in 100 mL water, Qsonica Q2000 1 hr at 100% amplitude, no excipient
[4] = Koch et al. 2020, cited from earlier work
[5] = CBD water solubility / solubility enhancement by UV-Visible spectrometry; format: physicochemical; settings: for solubility: thermodynamic from solid
Procedure: The General Method used to determine the solubility of CBD is as follows:
Water (1 mL) was added to one of the vials. […] A third vial was prepared with 100 mg of the agent, 1 mL of water, and no CBD for use as a background standard for correcting UV-visible spectra. All three vials were processed (ultrasound) together to minimize variations.
CBD solubility was determined by UV-Visible spectrometry.
Three methods were used for background subtraction: • 1. For agents with very little color, the CBD is seen as a peak on the side of a peak that can be readily measured by drawing a tangent line on the interfering peak to estimate a baseline. This is usable for pure samples, such as the commercial cyclodextrins. • 2. […] For strongly colored agents, small deviations in concentration can overwhelm the CBD signal. In these cases, the full spectra are measured and the standard is multiplied by a weighting factor before subtraction. The weighting factor is adjusted to give close to a zero absorbance at many wavelengths across the difference spectrum and the CBD spectrum is what remains.
CBD concentration is calculated as the absorbance at 274 nm in excess of the retentate absorbance relative to the absorbance of the CBD standard. Abs means absorbance in Table 1.

healthy male volunteers = assay: In vivo human oral ingestion study of CBD-SupraPlex excipient; settings: for effects experienced within 15-30 min after ingestion: CBD-SupraPlex (Run #181) 35.6 μg/mL in DI water
Procedure: A highly documented “in house” CBD-SupraPlex® human oral ingestion study was performed to further evaluate the SupraPlex® Excipients in humans. This study involved two healthy male volunteers: Subject #1 was […], 5′10″, 190 lbs., […] an experienced CBD/THC consumer, and Subject #2 was […], 5′6″, 160 lbs., a naïve, and a THC/CBD non consumer […]).
The CBD-SupraPlex® excipient samples were prepared under sanitary, GLP conditions. All CBD dose concentrations were confirmed by standard HPLC protocols.
The CBD-SupraPlex® excipient samples used for oral ingestion were administered sequentially in three, 10 mL ingestion portions as clear, transparent DI aqueous solutions. The 1st portion was ingested in a sublingual mode and last two portions were ingested by normal swallowing. The esthetic taste features of CBD-SupraPlex® excipient (pH2), in DI water were: sour, citrus-lemon, (80% lemon-10% salt taste), slight terpene, slippery film like texture, but with no after taste. When used in ginger ale, it gave a very pleasant taste. At pH4, the sourness is eliminated to give a pleasant slight lemon taste.
Test 1: 10 mL containing 35.6 μg/mL of CBD in DI water, sublingual over 15 min. Test 2: 15 min. after Test 1, 10 mL/35.6 μg/mL of CBD in DI water, normal swallow over 15 min. Total CBD ingested=712 μg in 20 mL DI water over 30 min. Test 3: 15 min. after Test 2, repeat of Test 2 Total CBD ingested=1068 μg in 30 mL DI water over 45 min. Test 4: 2 days later, 40 mL/35.6 μg/mL of CBD in DI water, normal swallow before evening sleep. […] Subject #1 could rarely experience more than 4 hr. normal sleeper night, but after Test 4 they took a 35.6 μg/mL of CBD in 40 mL DI water, sublingual before sleep 2 days after Test 4. When taken before bedtime, about 1 mg CBD dose level gave an excellent, sustained 7-8 hr. sleep cycle with a rested, clear-headed wake-up, no fogginess or after effect.

[6] = In vitro dissolution of Polymer Adducts and Hybrid Excipients; format: physicochemical; settings: 0.1 N HCl pH 1.2, SGF pH 1.2, PB pH 6.8, SIF pH 6.8; 37±0.5° C.
Procedure: Simulated Gastric Fluid (SGF pH 1.2), Phosphate Buffer (PB pH 6.8) and Simulated Intestinal Fluid (SIF pH 6.8) as dissolution medium. […] At predetermined time intervals, 1 mL samples were withdrawn and replenished with the same volume of fresh medium. The RSV and CBD content in these samples were determined by using a UV-visible Spectrophotometer (U-3010, Hitachi, Japan) and specific amounts of RSV and CBD dissolved and were monitored and estimated as a function of time.
This multiple, hybrid excipient was then lyophilized and used for dissolution studies.

[7] = literature value, Chauhan et al.; cited from earlier work
[8] = Excipient assisted resveratrol water solubility enhancement; format: physicochemical; settings: water with the Excipients of the invention (PHC), aqueous with cosolvent or surfactant or cyclodextrin, thermodynamic from solid
Description: They were then examined to determine specific water solubility enhancement properties as a function of excipient composition and reaction parameters used for their syntheses.

SMILES: COc1cc(/C=C/C(=O)CC(=O)/C=C/c2ccc(O)c(OC)c2)ccc1O [curcumin]
- solution depletion [1]: essentially no solution depletion
- naked curcumin solubility in DI water [2]: 2.67 µg/mL

SMILES: C=C(C)[C@@H]1CCC(C)=C[C@H]1c1c(O)cc(CCCCC)cc1O [CBD, cannabidiol]
- μg-CBD [3]: 31.36 µg
- CBD in water alone ([4]; literature value): 0.0000627 mg/mL
- Water Solubility of CBD ([4]; no sonication): 0.0627 µg/mL
- solution depletion [1]: essentially no solution depletion
- increased solubility of CBD ([5]; in the presence of naked 2HPBCD): 2508.7 fold
- increased solubility of CBD ([5]; in the presence of naked ACD): 3066.2 fold
- increased solubility of CBD ([5]; in the presence of naked GCD): 278.7 fold
- increased solubility of CBD ([5]; sonication protocol in DI water, no excipient): 313.6 fold
- solubility ([5]; water with the Excipients of the invention, aqueous with cosolvent or surfactant or cyclodextrin, read-out: water solubility of CBD, enhanced): 500 to 15100 µg/mL
- solubility ([5]; water, high power sonication, read-out: Water Solubility of CBD): 31 µg/mL
- solubility ([5]; water, low power sonication, read-out: Water Solubility of CBD): 0.4 µg/mL
- increased solubility of CBD ([5]; with Run #1 retentate (Example 1), baseline not stated): 2717.8 fold
- increased solubility of CBD ([5]; with Run #3 retentate (Example 2), baseline not stated): 2673.2 fold
- increased solubility of CBD ([5]; with Run #4 retentate (Example 3), baseline not stated): 4843.2 fold
- increased solubility of CBD ([5]; with Run #12 insoluble nanosponge suspension (Example 5), baseline not stated): 3797.9 fold
- increased solubility of CBD ([5]; with Run #19 retentate (Example 4), baseline not stated): 4634.1 fold
- sustained sleep cycle (healthy male volunteers; Subject #1, about 1 mg CBD as CBD-SupraPlex (Run #181) before bedtime): 7 to 8 h
- effects experienced within 15-30 min after ingestion (healthy male volunteers; Subject #1, experienced consumer): tingling in fingers, heightened focus, higher energy, relaxed feeling, reduced anxiety, some thirst noted
- effects experienced within 15-30 min after ingestion (healthy male volunteers; Subject #2, naïve non consumer): peaceful, relaxed, reduced anxiety, remained alert/coordinated, enhanced talking, laughing, higher energy movement, then some drowsiness after 1 hr.
- in vitro dissolution performance [6]: saturation and incomplete dissolution profiles; also recorded: insoluble

SMILES: Oc1ccc(C=Cc2cc(O)cc(O)c2)cc1 [resveratrol]
- naked resveratrol solubility in DI water [7]: 0.04 µg/mL
- solution depletion [1]: essentially no solution depletion
- solubility [8]: 5010 to 30600 µg/mL
- in vitro dissolution performance [6]: saturation and incomplete dissolution profiles
